The numbers were not newly measured in patent US20030157036A1, “Topical dapsone for the treatment of acne” (priority 2002, published 2003), which cites them from elsewhere.

For this data set, the system named is P. acnes.

Take `Nc1ccc(S(=O)(=O)c2ccc(N)cc2)cc1` [Dapsone, bis(4-aminophenyl)sulfone]: the minimum inhibitory concentration result is reported as “about 1 microgram per milliliter”.
